Laboratory results taken from the supplement of paper PMC10307832.

Key:
Assay in all cases: relative viability (nuclei count vs DMSO), 5 days (fraction); higher = more cells survive
IPA-3 = compound: C1=CC=C2C(=C1)C=CC(=C2SSC3=C(C=CC4=CC=CC=C43)O)O [IPA-3]
Procedure, shortened: (§1)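 Lung cancer cell lines in 1536-well plates were exposed by pinning to five library-drug doses (not always all listed) √10 apart, following an overnight hold at 37 °C. MetaXpress counted Hoechst-stained nuclei from 4× images taken after 5 days without medium change. Viability is the median ratio of treated-well to vehicle-well nuclei across plates. Plates required control CV below 25% and at least one doubling.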

Doramapimod = compound: Cc1ccc(-n2nc(C(C)(C)C)cc2NC(=O)Nc2ccc(OCCN3CCOCC3)c3ccccc23)cc1 [Doramapimod]
Procedure, shortened: as §1

RAF265 = compound: Cn1c(Nc2ccc(C(F)(F)F)cc2)nc2cc(Oc3ccnc(-c4ncc(C(F)(F)F)[nH]4)c3)ccc21 [RAF265]
Procedure, shortened: as §1

Row | Cell Line | relative viability (IPA-3; 0.2 µM) | relative viability (IPA-3; 0.6325 µM) | relative viability (IPA-3; 2 µM) | relative viability (IPA-3; 6.325 µM) | relative viability (IPA-3; 20 µM) | relative viability (Doramapimod; 0.02 µM) | relative viability (Doramapimod; 0.06325 µM) | relative viability (Doramapimod; 0.2 µM) | relative viability (Doramapimod; 0.6325 µM) | relative viability (Doramapimod; 2 µM) | relative viability (RAF265; 0.01 µM) | relative viability (RAF265; 0.03162 µM) | relative viability (RAF265; 0.1 µM) | relative viability (RAF265; 0.3162 µM) | relative viability (RAF265; 1 µM)
1 | HCC-78 | 1.04 | 0.907 | 1.04 | 1.04 | 0.994 | 0.962 | 1.07 | 1.06 | 1.14 | 1.02 | 0.947 | 1.12 | 1.15 | 0.927 | 0.878
2 | HCC-366 | 1.04 | 0.976 | 0.98 | 1.03 | 1.05 | 0.951 | 0.979 | 1 | 1.04 | 0.99 | 1.03 | 0.99 | 1.06 | 0.975 | 0.947
3 | HCC-827 | 1.07 | 1.05 | 1.05 | 0.955 | 0.978 | 1.02 | 1.05 | 1.07 | 0.902 | 0.863 | 1.03 | 0.963 | 1.05 |  | 0.903
4 | HOP-62 | 1.08 | 0.925 | 0.986 | 1 | 1.09 | 1.02 | 1.06 | 1.08 | 0.931 | 0.975 | 1.12 | 0.989 | 0.952 | 1 | 0.834
5 | IA-LM | 1.15 | 0.758 | 1.03 | 0.876 | 0.892 | 0.921 | 0.977 | 0.906 | 0.982 | 0.913 | 0.941 | 0.855 | 0.91 | 0.801 | 0.755
6 | LC-2-ad | 1.05 | 0.958 | 0.978 | 1.03 | 0.992 | 0.991 | 1.02 | 1.07 | 1.02 | 0.923 | 1.09 | 0.989 | 1.11 | 0.748 | 0.484
7 | LCLC-97TM1 | 1.04 | 0.868 | 0.851 | 0.908 | 0.981 | 0.916 | 1.04 | 0.961 | 0.811 | 0.86 | 1.04 | 0.899 | 0.531 | 0.637 | 0.418
8 | LCLC-103H | 1.12 | 0.962 | 0.876 | 0.99 | 1.07 | 1.02 | 1.01 | 0.887 | 0.988 | 0.929 | 1.01 | 1.05 | 0.919 | 0.78 | 0.72
9 | LK-2 | 1.06 | 1.03 | 0.995 | 1.01 | 1.19 | 0.909 | 0.981 | 0.926 | 0.741 | 0.849 | 0.963 | 1 | 1.09 | 1.07 | 0.714
10 | LOU-NH91 | 0.953 | 0.94 | 1.01 | 1.01 | 1.19 | 1.09 | 0.996 | 1.05 | 1.08 | 0.691 | 1.05 | 0.976 | 0.905 | 0.733 | 0.753
11 | LU99A | 1.02 | 0.89 | 0.932 | 0.919 | 0.98 | 0.944 | 0.906 | 1.03 | 1 | 0.949 | 0.971 | 0.987 | 0.705 | 0.492 | 0.373
12 | LXF-289 | 1.08 | 0.999 | 1.04 | 1.06 | 1.13 | 0.999 | 0.986 | 1.01 | 0.982 | 0.943 | 1.02 | 1.1 | 0.976 | 0.807 | 0.768
13 | NCI-H23 | 1.08 | 0.944 | 0.895 | 0.917 | 0.923 | 0.966 | 1.04 | 1.06 | 0.864 | 0.946 | 0.966 | 0.847 | 0.906 | 0.416 | 0.41
14 | NCI-H322M | 1.01 | 0.902 | 1.02 | 1.03 | 1 | 1.05 | 0.993 | 0.998 | 1.3 | 0.937 | 1.04 | 1 | 0.597 | 0.38 | 0.282
15 | NCI-H358 | 1.06 | 0.892 | 0.917 | 0.965 | 0.949 | 0.873 | 0.881 | 0.973 | 0.923 | 0.88 | 1.03 | 0.903 | 0.686 | 0.382 | 0.262
16 | NCI-H441 | 1.37 | 0.951 | 0.896 | 1.04 | 0.915 | 0.999 | 0.845 | 1.08 | 1.06 | 0.859 | 1.01 | 0.928 | 1.08 | 0.78 | 0.753
17 | NCI-H460 | 1.2 | 0.967 | 0.921 | 0.945 | 0.993 | 0.994 | 0.999 | 1.04 | 1.05 | 0.972 | 1.02 | 0.968 | 1.09 | 0.971 | 0.965
